Our source for the IC50 and GI50 values is US7820646B2, “Cyclized derivatives as Eg-5 inhibitors” (Novartis Vaccines and Diagnostics, Inc., priority 2007, dated 2010).

Where only a bound is given, the exact number is not on record here.

For assay [1], the target named is T1, motor domain of human KSP (Eg 5, KNSL1) (Homo sapiens, UniProt P52732).
T1 construct: KSP motor protein (i.e., the KSP motor domain); made in house
T1 sequence (P52732 18-359 limits assumed): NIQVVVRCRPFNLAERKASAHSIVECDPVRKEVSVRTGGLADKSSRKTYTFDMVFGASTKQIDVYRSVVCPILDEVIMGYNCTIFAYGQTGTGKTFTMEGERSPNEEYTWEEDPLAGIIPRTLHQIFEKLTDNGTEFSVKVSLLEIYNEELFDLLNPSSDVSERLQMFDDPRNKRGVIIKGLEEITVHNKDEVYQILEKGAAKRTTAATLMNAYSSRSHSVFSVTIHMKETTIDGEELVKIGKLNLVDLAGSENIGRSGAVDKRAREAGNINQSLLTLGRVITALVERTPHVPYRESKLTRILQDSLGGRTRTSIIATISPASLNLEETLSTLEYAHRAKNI
As to the kind of experiment: Assay for determining KSP activity (microtubule-stimulated ATPase, Biomol Green). Conditions: KSP motor domain 45 nM, microtubules 35 μg/mL, 1 hour at RT; read-out: Biochemical Activity IC50. From the text:
This example provides a representative in vitro assay for determining KSP activity in vitro. Purified microtubules obtained from bovine brain were purchased from Cytoskeleton Inc. (Denver, Colo., USA). The motor domain of human KSP (Eg 5, KNSL1) was cloned, expressed, and purified to greater than 95% homogeneity. Biomol Green was purchased from Affinity Research Products Ltd. (Matford Court, Exeter, Devon, United Kingdom). Microtubules and KSP motor protein (i.e., the KSP motor domain) were diluted in assay buffer (20 mM Tris-HCl (pH 7.5), 1 mM MgCl2, 10 mM DTT and 0.25 mg/mL BSA) to a final concentration of 35 μg/mL microtubules and 45 nM KSP. The microtubule/KSP mixture was then pre-incubated at 37° C. for 10 min to promote the binding of KSP to microtubules.
To each well of the testing plate (384-well plate) containing 1.25 μL of inhibitor or test compound in DMSO (or DMSO only in the case of controls) were added 25 μL of ATP solution (ATP diluted to a concentration of 300 μM in assay buffer) and 25 μL of the above-described microtubule/KSP solution. The plates were incubated at RT for 1 hour. Following incubation, 65 μL of Biomol Green (a malachite green-based dye that detects the release of inorganic phosphate) was added to each well. The plates were incubated for an additional 5-10 minutes then the absorbance at 630 nm was determined using a Victor II plate reader. The amount of absorbance at 630 nm corresponded to the amount of KSP activity in the samples. The IC50 of each inhibitor or test compound was then determined based on the decrease in absorbance at 630 nm at each concentration, via nonlinear regression using either XLFit for Excel or Prism data analysis software by GraphPad Software Inc.

A further assay relates to HCT-15 colon carcinoma. The assay is described as follows: Inhibition of cellular proliferation in tumor cell lines (CellTiter Glo), HCT-15. Format: cell-based. Conditions: Homo sapiens; HCT-15, 72 hours of continuous compound exposure; read-out: Cell Base Activity GI50 HCT-15. As to the method: (§1) Cells are plated in 96-well plates at densities of about 500 cells per well of a 96-well plate and are allowed to grow for 24 hours. The cells are then treated with various concentrations of compounds for 72 hours. Then, 100 μl of CellTiter Glo is added. CellTiter Glo is a tetrazolium-based assay using the reagent 3-(4,5-dimethylthiazol-2-yl) 5-(3-carboxymethoxyphenyl)-2-(4-sulfophenyl)-2H-tetrazolium (MTS) (U.S. Pat. No. 5,185,450) (see Promega product catalog #G3580, CellTiter 96 Aqueous One Solution Cell Proliferation Assay). The cells are then incubated in the dark for 30 minutes. The amount of luminescence is determined for each well using a Walloc Trilux plate reader, which correlates with the number of cells per well. The number of viable cells in the wells that receive only DMSO (0.5%) serve as an indication of 0% inhibition, while wells without cells serve as 100% inhibition of cell growth. The compound concentration that results in a 50% growth inhibition (GI50) is determined graphically from sigmoidal dose-response curves of log-transformed dose values versus cell counts (percent of control) at 72 hours of continuous compound exposure.
(§2) The cell lines used are listed below.
(§3) The cell proliferation assay is performed as described above.

The next assay concerns HCT-116 colon carcinoma. As to the kind of experiment: Inhibition of cellular proliferation in tumor cell lines (CellTiter Glo), HCT-116. The following applies: Homo sapiens; HCT-116, 72 hours of continuous compound exposure; read-out: Cell Base Activity GI50 HCT-116. Format: cell-based. As for the experimental part:
as §1, §2, §3

For a further assay, the system named is parental cell line. The assay is described as follows: Inhibition of cellular proliferation in tumor cell lines (CellTiter Glo), KB3.1. Format: cell-based. The following applies: Homo sapiens, KB 3-1; KB3.1, 72 hours of continuous compound exposure; read-out: Cell Base Activity GI50 KB3.1. As for the experimental part: as §1, §2, §3
Assay [2] concerns KB8.5 (KB85 - p-glycoprotein associated multi-drug resistant cell line). As to the kind of experiment: Inhibition of cellular proliferation in tumor cell lines (CellTiter Glo), KB8.5. Format: cell-based. The following applies: KB8.5, 72 hours of continuous compound exposure; read-out: Cell Base Activity GI50 KB8.5. As for the experimental part: as §1, §2, §3

As for `CC(C)(C)[C@H](c1nc(-c2ccccc2)cn1Cc1ccccc1)N1CC(CCN)OC1=O` (stereo in doubt) [Compound 1, (5R)-5-(2-aminoethyl)-3-[(1R)-1-(1-benzyl-4-phenyl-1H-imidazol-2-yl)-2,2-dimethylpropyl]-1,3-oxazolidin-2-one], in assay [1], the IC50 fell in the range of 100 to 1000 nM. For the same compound, the GI50 was more than 1000 nM in the assay on HCT-15 colon carcinoma, 100 to 1000 nM with HCT-116 colon carcinoma, 100 to 1000 nM in the assay on parental cell line and more than 1000 nM in assay [2].

With `CC(C)[C@H](c1nc(-c2cccc(Cl)c2)cn1Cc1ccccc1)N1CC(CN)OC1=O` (stereo partly drawn) [Compound 3, 5-(aminomethyl)-3-{(1R)-1-[1-benzyl-4-(3-chlorophenyl)-1H-imidazol-2-yl]-2-methylpropyl}-1,3-oxazolidin-2-one], the IC50 in assay [1] was in the range of 100 to 1000 nM. Besides, the GI50 (in the assay on HCT-15 colon carcinoma; in the assay with HCT-116 colon carcinoma; with parental cell line; in assay [2]) was more than 1000 nM throughout.

Turning to `CC(C)(C)[C@H](c1nc(-c2ccccc2)cn1Cc1ccccc1)N1C[C@H](CN)COC1=O` [Compound 4, (5S)-5-(aminomethyl)-3-[(1R)-1-(1-benzyl-4-phenyl-1H-imidazol-2-yl)-2,2-dimethylpropyl]-1,3-oxazinan-2-one], the IC50 in assay [1] lay within 100 to 1000 nM. Moreover, the GI50 (in the assay with parental cell line; in assay [2]) was more than 1000 nM in each case.

As to `CC(C)(C)[C@H](c1nc(-c2ccccc2)cn1Cc1ccccc1)N1C[C@@H](CN)COC1=O` [Compound 5, (5R)-5-(aminomethyl)-3-[(1R)-1-(1-benzyl-4-phenyl-1H-imidazol-2-yl)-2,2-dimethylpropyl]-1,3-oxazinan-2-one], the IC50 in assay [1] is not above 100 nM. Besides, the GI50 (in the assay on parental cell line; in assay [2]) was 100 to 1000 nM throughout.

As for `CC(C)(C)[C@H](c1nc(-c2ccccc2)cn1Cc1ccccc1)N1C[C@H](CN)OCC1=O` [Compound 6, (6S)-6-(aminomethyl)-4-[(1R)-1-(1-benzyl-4-phenyl-1H-imidazol-2-yl)-2,2-dimethylpropyl]morpholin-3-one], the IC50 in assay [1] lay within 100 to 1000 nM. For the same compound, the GI50 with HCT-15 colon carcinoma is more than 1000 nM; in the assay on HCT-116 colon carcinoma, 100 to 1000 nM; in the assay with parental cell line, 100 to 1000 nM; in assay [2], more than 1000 nM.

With `CC(C)(C)[C@H](c1nc(-c2ccccc2)cn1Cc1ccccc1)N1C[C@@H](CN)OCC1=O` [Compound 7, (6R)-6-(aminomethyl)-4-[(1R)-1-(1-benzyl-4-phenyl-1H-imidazol-2-yl)-2,2-dimethylpropyl]morpholin-3-one], the IC50 in assay [1] was not above 100 nM. The GI50 (in the assay with HCT-15 colon carcinoma; in the assay on HCT-116 colon carcinoma; in the assay with parental cell line; in assay [2]) was 100 to 1000 nM in each case.

Regarding `CC(C)[C@H](c1nc(-c2cccc(Cl)c2)cn1Cc1ccccc1)N1C[C@@H](CN)OCC1=O` [Compound 8, (6R)-6-(aminomethyl)-4-{(1R)-1-[1-benzyl-4-(3-chlorophenyl)-1H-imidazol-2-yl]-2-methylpropyl}morpholin-3-one], in assay [1], the half-inhibitory concentration (IC50) was more than 1000 nM.

As for `CC(C)(C)[C@H](c1nc(-c2ccccc2)cn1Cc1ccccc1)N1C[C@@H](CCN)OCC1=O` [Compound 10, (6R)-6-(2-aminoethyl)-4-[(1R)-1-(1-benzyl-4-phenyl-1H-imidazol-2-yl)-2,2-dimethylpropyl]morpholin-3-one], the half-inhibitory concentration (IC50) in assay [1] is 100 to 1000 nM.

Turning to `CC(C)(C)[C@H](c1nc(-c2ccccc2)cn1Cc1ccccc1)N1C[C@H](CCN)OCC1=O` [Compound 11, (6S)-6-(2-aminoethyl)-4-[(1R)-1-(1-benzyl-4-phenyl-1H-imidazol-2-yl)-2,2-dimethylpropyl]morpholin-3-one], the half-maximal inhibitory concentration (IC50) in assay [1] was in the range of 100 to 1000 nM.

As for `CC(C)[C@H](c1nc(-c2cccc(Cl)c2)cn1Cc1ccccc1)N1C[C@H](CCN)OCC1=O` [Compound 12, (6S)-6-(2-aminoethyl)-4-{(1R)-1-[1-benzyl-4-(3-chlorophenyl)-1H-imidazol-2-yl]-2-methylpropyl}morpholin-3-one], in assay [1], the IC50 is more than 1000 nM.

As for `CC(C)(C)[C@H](c1nc(-c2ccccc2)cn1Cc1ccccc1)N1C[C@@H](CO)NCCC1=O` [Compound 19, (2S)-4-[(1R)-1-(1-benzyl-4-phenyl-1H-imidazol-2-yl)-2,2-dimethylpropyl]-2-(hydroxymethyl)-1,4-diazepan-5-one], the IC50 in assay [1] is 100 to 1000 nM. Moreover, the GI50 (with parental cell line; in assay [2]) was more than 1000 nM each time.

Take `CC(C)(C)[C@H](c1nc(-c2ccccc2)cn1Cc1ccccc1)N1C[C@@H](CN)N(S(C)(=O)=O)CCC1=O` [Compound 21, (2R)-2-(aminomethyl)-4-[(1R)-1-(1-benzyl-4-phenyl-1H-imidazol-2-yl)-2,2-dimethylpropyl]-1-(methylsulfonyl)-1,4-diazepan-5-one]: the IC50 in assay [1] is not above 100 nM. For the same compound, the GI50 is not above 100 nM with parental cell line and more than 1000 nM in assay [2].

Consider `CC(C)(C)[C@H](c1nc(-c2ccccc2)cn1Cc1ccccc1)N1C[C@H](CN)OCCC1=O` [Compound 22, (2S)-2-(aminomethyl)-4-[(1R)-1-(1-benzyl-4-phenyl-1H-imidazol-2-yl)-2,2-dimethylpropyl]-1,4-oxazepan-5-one], for which the IC50 in assay [1] was 100 to 1000 nM. In addition, the GI50 (in the assay on parental cell line; in assay [2]) was more than 1000 nM in each case.

With `CC(C)(C)[C@H](c1nc(-c2ccccc2)cn1Cc1ccccc1)N1C[C@H](CN)COCC1=O` [Compound 24, (6S)-6-(aminomethyl)-4-[(1R)-1-(1-benzyl-4-phenyl-1H-imidazol-2-yl)-2,2-dimethylpropyl]-1,4-oxazepan-3-one], the IC50 in assay [1] is not above 100 nM. Besides, the GI50 (with parental cell line; in assay [2]) was 100 to 1000 nM throughout.

For `CC(C)(C)[C@H](c1nc(-c2cccc(F)c2)cn1Cc1cc(F)cc(F)c1)N1C[C@@H](CN)COCC1=O` [Compound 26, (6R)-6-(aminomethyl)-4-{(1R)-1-[1-(3,5-difluorobenzyl)-4-(3-fluorophenyl)-1H-imidazol-2-yl]-2,2-dimethylpropyl}-1,4-oxazepan-3-one], the IC50 in assay [1] is not above 100 nM. Also, the GI50 (in the assay with HCT-116 colon carcinoma; in the assay with parental cell line; in assay [2]) was 100 to 1000 nM in each case.

Turning to `CC(C)(C)[C@H](c1nc(-c2ccccc2)cn1Cc1ccccc1)N1C[C@@H](CN)CNC(=O)C1=O` [Compound 30, (6S)-6-(aminomethyl)-1-[(1R)-1-(1-benzyl-4-phenyl-1H-imidazol-2-yl)-2,2-dimethylpropyl]-1,4-diazepane-2,3-dione], the IC50 in assay [1] was not above 100 nM.

On to `CC(C)(C)[C@H](c1nc(-c2ccccc2)cn1Cc1ccccc1)N1C[C@H](F)CNCC1=O` [Compound 31, (6R)-1-[(1R)-1-(1-benzyl-4-phenyl-1H-imidazol-2-yl)-2,2-dimethylpropyl]-6-fluoro-1,4-diazepan-2-one], for which, in assay [1], the IC50 lay within 100 to 1000 nM.

For `CC(C)(C)[C@H](c1nc(-c2ccccc2)cn1Cc1ccccc1)N1C[C@@H](F)CNCC1=O` [Compound 32, (6S)-1-[(1R)-1-(1-benzyl-4-phenyl-1H-imidazol-2-yl)-2,2-dimethylpropyl]-6-fluoro-1,4-diazepan-2-one], the IC50 in assay [1] lay in the range of 100 to 1000 nM. The GI50 (in the assay on parental cell line; in assay [2]) was more than 1000 nM in each case.
